Reference: patent US6596771B2, “Drugs for treating viral infections” (priority 2001, dated 2003)
Values after ≈ are worked out from the molar mass of the structure shown. Where two headings read alike, the source gives them in different places.

Key:
[1] = tested on: cowpox virus; format: cell-based
[2] = tested on: Vaccinia Virus; format: cell-based
[3] = tested on: cowpox virus; format: cell-based; remark: listed apart in the source
[4] = tested on: Vaccinia Virus; format: cell-based; remark: listed apart in the source
[5] = tested on: HFF cells
[6] = tested on: cowpox; set-up: species or system female BALB/c mice; conditions: mouse, in vivo
[7] = tested on: stationary HFF cells; assay: Neutral Red Uptake Assay (toxicity); format: cell-based, human

Row | Structure (SMILES) | EC50 [1] [microgram/mL] | EC50 [2] [microgram/mL] | concentration at which active in these cells [3] | EC90 [4] [µg/mL] | EC90 [2] [microgram/mL] | CC50 [5] [microgram/mL] | EC90 [1] [microgram/mL] | Lung titer on Day 3 [6] | CC50 [7] [microgram/mL]
1 | Nc1ccn(C[C@@H](CO)OCP(=O)(O)O)c(=O)n1 [CDV, reference compound] | 2.30 | 1.80 | about 12.0 microgram microgram/mL | – | – | – | – | – | –
2 | O=S(=O)(NC12CC3CC(CC(C3)C1)C2)NS(=O)(=O)NC12CC3CC(CC(C3)C1)C2 [Example 1, N,N^1-Bis(tricyclo[3.3.1.1^3,7]dec-1-yl)imidodisulfamide] | – | – | – | 0.15 (≈ 0.338 µM) | 1.40 | 77.80 | – | – | –
3 | O=S(=O)([N-]S(=O)(=O)NC12CC3CC(CC(C3)C1)C2)NC12CC3CC(CC(C3)C1)C2.[Na+] [Example 11] | 0.50 | 0.04 | – | – | 0.11 | – | 2.10 | 6.6±1.3 | 87.6
